Where a chain is given by its changes, count along the chain named. Entries after “also recorded” stand apart in the source; their conditions may differ. Read-outs that look alike come from different tables or passages of the source.
How the values were obtained:
wild-type hVDR [1] = molecular target: T1, wild-type hVDR (Homo sapiens, UniProt P11473); format: cell-based
T1 sequence (P11473 1-427): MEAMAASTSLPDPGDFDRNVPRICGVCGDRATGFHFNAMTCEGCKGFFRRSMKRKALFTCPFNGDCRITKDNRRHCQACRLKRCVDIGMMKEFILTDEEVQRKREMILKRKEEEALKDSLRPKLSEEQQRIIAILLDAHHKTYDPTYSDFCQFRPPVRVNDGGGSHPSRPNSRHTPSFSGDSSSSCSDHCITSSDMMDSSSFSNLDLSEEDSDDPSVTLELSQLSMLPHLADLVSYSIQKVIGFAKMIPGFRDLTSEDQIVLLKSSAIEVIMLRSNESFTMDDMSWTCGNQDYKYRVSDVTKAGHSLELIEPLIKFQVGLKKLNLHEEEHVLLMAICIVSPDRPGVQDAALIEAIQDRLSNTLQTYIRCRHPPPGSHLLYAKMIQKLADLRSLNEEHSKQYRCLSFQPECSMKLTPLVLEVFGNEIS

hVDR mutant H305F/H397Y [2] = molecular target: hVDR mutant H305F/H397Y (Homo sapiens, UniProt P11473, H305F/H397Y); conditions: adenine selective media (-ALW)
Target sequence in this assay (P11473 127-423 H305F/H397Y limits assumed): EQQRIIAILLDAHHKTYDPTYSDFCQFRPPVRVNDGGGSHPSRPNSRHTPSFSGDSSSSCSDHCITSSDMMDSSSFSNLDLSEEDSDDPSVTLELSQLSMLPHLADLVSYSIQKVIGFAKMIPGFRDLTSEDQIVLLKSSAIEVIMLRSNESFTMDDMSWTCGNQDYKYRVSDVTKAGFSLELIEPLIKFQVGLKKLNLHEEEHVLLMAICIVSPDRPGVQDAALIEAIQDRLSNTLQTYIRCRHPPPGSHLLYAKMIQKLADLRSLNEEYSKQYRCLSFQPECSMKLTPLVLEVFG
Target sequence in this assay (Q9Y6Q9 whole entry partner): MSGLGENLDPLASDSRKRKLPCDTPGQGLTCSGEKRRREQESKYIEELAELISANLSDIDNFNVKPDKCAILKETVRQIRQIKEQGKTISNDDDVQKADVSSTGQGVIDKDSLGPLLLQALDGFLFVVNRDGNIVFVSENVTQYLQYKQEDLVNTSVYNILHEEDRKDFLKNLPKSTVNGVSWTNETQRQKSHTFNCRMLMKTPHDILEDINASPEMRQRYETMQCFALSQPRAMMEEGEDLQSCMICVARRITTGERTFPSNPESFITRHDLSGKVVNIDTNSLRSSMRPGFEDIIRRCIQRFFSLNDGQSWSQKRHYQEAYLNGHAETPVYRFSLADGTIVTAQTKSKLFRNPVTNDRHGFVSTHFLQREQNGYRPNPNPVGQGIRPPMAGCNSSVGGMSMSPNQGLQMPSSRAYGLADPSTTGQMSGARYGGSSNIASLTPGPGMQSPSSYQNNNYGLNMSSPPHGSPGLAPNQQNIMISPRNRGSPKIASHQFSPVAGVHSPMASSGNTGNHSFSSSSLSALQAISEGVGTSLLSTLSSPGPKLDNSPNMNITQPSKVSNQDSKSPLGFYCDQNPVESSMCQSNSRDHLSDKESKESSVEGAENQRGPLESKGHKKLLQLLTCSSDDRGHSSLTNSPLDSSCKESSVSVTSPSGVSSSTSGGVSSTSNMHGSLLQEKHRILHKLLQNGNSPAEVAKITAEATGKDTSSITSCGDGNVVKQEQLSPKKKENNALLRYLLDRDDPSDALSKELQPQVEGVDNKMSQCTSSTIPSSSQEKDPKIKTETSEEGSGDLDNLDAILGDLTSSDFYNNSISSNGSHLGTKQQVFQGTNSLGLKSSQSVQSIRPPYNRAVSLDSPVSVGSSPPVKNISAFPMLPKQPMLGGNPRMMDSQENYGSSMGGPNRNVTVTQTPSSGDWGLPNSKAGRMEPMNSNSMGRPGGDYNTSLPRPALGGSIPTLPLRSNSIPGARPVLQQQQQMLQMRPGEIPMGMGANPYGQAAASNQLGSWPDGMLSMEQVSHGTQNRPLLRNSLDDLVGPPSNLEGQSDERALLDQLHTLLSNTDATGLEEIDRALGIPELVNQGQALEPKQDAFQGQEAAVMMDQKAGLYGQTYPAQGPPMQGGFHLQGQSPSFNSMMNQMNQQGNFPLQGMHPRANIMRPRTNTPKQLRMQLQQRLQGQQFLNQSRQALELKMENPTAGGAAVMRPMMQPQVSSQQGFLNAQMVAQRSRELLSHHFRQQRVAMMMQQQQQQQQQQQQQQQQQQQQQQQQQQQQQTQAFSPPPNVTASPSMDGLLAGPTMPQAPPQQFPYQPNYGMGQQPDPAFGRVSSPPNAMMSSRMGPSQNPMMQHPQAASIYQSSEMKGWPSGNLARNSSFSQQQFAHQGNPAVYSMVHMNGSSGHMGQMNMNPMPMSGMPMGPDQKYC

wild-type hVDR [3] = molecular target: T2, wild-type hVDR (Homo sapiens, UniProt P11473); format: cell-based; conditions: HEK293T
T2 sequence (P11473 127-423 limits assumed): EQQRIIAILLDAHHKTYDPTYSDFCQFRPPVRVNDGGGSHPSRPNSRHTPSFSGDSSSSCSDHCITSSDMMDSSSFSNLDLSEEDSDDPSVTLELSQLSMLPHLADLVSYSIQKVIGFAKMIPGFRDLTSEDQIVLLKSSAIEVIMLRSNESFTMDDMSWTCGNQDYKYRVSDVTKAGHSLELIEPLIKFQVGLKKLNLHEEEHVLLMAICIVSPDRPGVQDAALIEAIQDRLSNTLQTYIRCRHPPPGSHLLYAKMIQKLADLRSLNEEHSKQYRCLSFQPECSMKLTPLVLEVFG

hVDR mutant H305F/H397Y [4] = molecular target: T3, hVDR mutant H305F/H397Y (Homo sapiens, UniProt P11473, H305F/H397Y); format: cell-based
T3 sequence (P11473 127-423 H305F/H397Y limits assumed): T2 sequence (P11473 127-423 limits assumed) with H179F, H271Y

hVDR mutant H305Y [5] = molecular target: hVDR mutant H305Y (Homo sapiens, UniProt P11473, H305Y); test: Chemical complementation, yeast PJ69-4A liquid quantitation growth assay; format: cell-based
Target sequence in this assay (P11473 127-423 H305Y limits assumed): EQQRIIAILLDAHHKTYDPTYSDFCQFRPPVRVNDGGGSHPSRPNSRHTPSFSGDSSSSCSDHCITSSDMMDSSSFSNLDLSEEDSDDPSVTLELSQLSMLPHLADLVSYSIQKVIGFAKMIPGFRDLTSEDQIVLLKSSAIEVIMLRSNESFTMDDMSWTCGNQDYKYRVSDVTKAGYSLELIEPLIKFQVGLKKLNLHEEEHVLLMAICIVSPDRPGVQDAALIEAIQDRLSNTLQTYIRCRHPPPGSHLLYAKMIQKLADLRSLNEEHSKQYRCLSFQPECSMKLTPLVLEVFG
Target sequence in this assay (Q9Y6Q9 whole entry partner): as the sequence (Q9Y6Q9 whole entry partner) above

hVDR mutant H305Y [6] = molecular target: T4, hVDR mutant H305Y (Homo sapiens, UniProt P11473, H305Y); format: cell-based; conditions: HEK293T
T4 sequence (P11473 127-423 H305Y limits assumed): T2 sequence (P11473 127-423 limits assumed) with H179Y

hVDR mutant H305F [7] = molecular target: hVDR mutant H305F (Homo sapiens, UniProt P11473, H305F); test: Chemical complementation, yeast PJ69-4A liquid quantitation growth assay; format: cell-based
Target sequence in this assay (P11473 127-423 H305F limits assumed): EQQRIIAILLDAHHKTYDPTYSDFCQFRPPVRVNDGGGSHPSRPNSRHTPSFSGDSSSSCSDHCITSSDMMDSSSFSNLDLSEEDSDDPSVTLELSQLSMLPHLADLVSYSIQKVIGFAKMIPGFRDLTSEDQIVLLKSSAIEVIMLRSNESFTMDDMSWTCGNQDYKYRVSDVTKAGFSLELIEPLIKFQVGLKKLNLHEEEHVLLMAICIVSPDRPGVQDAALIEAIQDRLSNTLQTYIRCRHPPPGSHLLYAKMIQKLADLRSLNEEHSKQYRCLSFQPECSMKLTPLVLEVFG
Target sequence in this assay (Q9Y6Q9 whole entry partner): as the sequence (Q9Y6Q9 whole entry partner) above

hVDR H305F = conditions: antagonist on wild-type hVDR; cited from earlier work
hVDR mutant H305F [8] = molecular target: T5, hVDR mutant H305F (Homo sapiens, UniProt P11473, H305F); format: cell-based; conditions: HEK293T
T5 sequence (P11473 127-423 H305F limits assumed): T2 sequence (P11473 127-423 limits assumed) with H179F

[9] = histidine selective media (data not shown)

SMILES	ligand-activated growth (in words) (wild-type hVDR [1]; adenine selective media (-ALW))	ligand concentration at which growth is observed (wild-type hVDR [1]; histidine selective media (SC-HLW + 0.1 mM 3AT), OD 630) [µM]	ligand concentration at which growth/activation is observed (hVDR mutant H305F/H397Y [2]) [µM]	ligand concentration at which activation is displayed (wild-type hVDR [3]) [µM]	ligand concentration at which activation is displayed (hVDR mutant H305F/H397Y [4]; HEK293T) [µM]	ligand concentration at which growth is observed (hVDR mutant H305Y [5]; adenine selective media (-ALW)) [µM]	ligand concentration at which growth is observed (hVDR mutant H305Y [5]; [9]) [µM]	ligand concentration at which activation is displayed (hVDR mutant H305Y [6]) [µM]	ligand concentration at which growth is observed (hVDR mutant H305F [7]; adenine selective media (-ALW)) [µM]	ligand concentration at which growth is observed (hVDR mutant H305F [7]; [9]) [µM]	functional character with the H305F mutation (in words) (hVDR H305F)	ligand-activated growth (in words) (wild-type hVDR [1]; Figure 2B, any ligand concentration)	ligand concentration at which activation is displayed (hVDR mutant H305F [8]) [µM]	activation of receptor (in words) (wild-type hVDR [3])	lowest ligand concentration giving activation (hVDR mutant H305F/H397Y [4]; mammalian cell assays) [nM]
C[C@H](CCC(=O)O)[C@H]1CC[C@H]2[C@@H]3CC[C@@H]4C[C@H](O)CC[C@]4(C)[C@H]3CC[C@]12C [Lithocholic Acid, lithocholic acid]	no growth	10	1	100	1	1	0.1	1	1	0.1					
C=C1C[C@H](C[C@@H](C)[C@H]2CC[C@H]3/C(=C/C=C4/C[C@@H](O)C[C@H](O)C4=C)CCC[C@]23C)OC1=O [MK, (23S)-25-dehydro-1alpha(OH)-vitamin D3-26,23-lactone]											superagonist				
C=C1CC[C@H](O)C/C1=C/C=C1\CCC[C@]2(C)[C@@H]([C@H](C)CCCC(C)C)CC[C@@H]12 [Cholecalciferol, cholecalciferol]								1				No ligand activated growth; also recorded: not observed	1	does not activate; also recorded: no activation	100

— paper PMC3105188 (The Journal of steroid biochemistry and molecular biology, 2011)
